From patent US10988523B2, “Modified lipidated Relaxin B chain peptides and their therapeutic use” (Sanofi, priority 2018, dated 2021)
*1 amine or outer side, *2 acyl side, *3 side chain or, on linkers, in order; H or OH if unused. Where a SMILES comes first, the peptide text is derived from it. Side-chain parts run from the residue outwards. [ ]: non-standard residue; d: D form. The star is where a group is joined. X6 = CCCCCCCCCCCCCCC(=O)N[C@@H](CCC(=O)N[C@@H](CCC(=O)NCCCC[C@H](NC(=O)CC[C@H](NC(=O)CC[C@H](NC(=O)CCC(=O)NCCCOCCOCCOCCCNC(=O)CCC(=O)NCCCOCCOCCOCCCNC(=O)CCC(=O)NCCCOCCOCCOCCCN*)C(=O)O)C(=O)O)C(N)=O)C(=O)O)C(=O)O; PEG12 = NCCOCCOCCOCCOCCOCCOCCOCCOCCOCCOCCOCCOCCC(=O)O; γGlu = O=C(O)[C@H](CCC(=O)[*:2])N[*:1]; Stearoyl = CCCCCCCCCCCCCCCCCC(=O)*; Palmitoyl = CCCCCCCCCCCCCCCC(=O)*; αMeK = C[C@](N)(CCCCN)C(=O)O; αMeS = C[C@](N)(CO)C(=O)O; Nle = CCCC[C@H](N)C(=O)O; AEEA = NCCOCCOCC(=O)O; Aib = CC(C)(N)C(=O)O

Assays:
[1] = molecular target: T1, RXFP1 (Homo sapiens, UniProt Q9HBX9); test: OVCAR5 cAMP assay (HTRF), RXFP1 agonist activity; format: cell-based; settings: for Emax: OVCAR-5, maximal cAMP relative to H2-relaxin maximum (100%), read-out: EMax, OVCAR 5 cells (cAMP); for EC50: OVCAR5 cells, cAMP HTRF, read-out: EC50 (nM), OVCAR 5 cells (cAMP)
T1 construct: OVCAR5 cells expressing endogenous RXFP1; endogenous in cells; host or cells: OVCAR5 cells
T1 sequence (Q9HBX9 1-757): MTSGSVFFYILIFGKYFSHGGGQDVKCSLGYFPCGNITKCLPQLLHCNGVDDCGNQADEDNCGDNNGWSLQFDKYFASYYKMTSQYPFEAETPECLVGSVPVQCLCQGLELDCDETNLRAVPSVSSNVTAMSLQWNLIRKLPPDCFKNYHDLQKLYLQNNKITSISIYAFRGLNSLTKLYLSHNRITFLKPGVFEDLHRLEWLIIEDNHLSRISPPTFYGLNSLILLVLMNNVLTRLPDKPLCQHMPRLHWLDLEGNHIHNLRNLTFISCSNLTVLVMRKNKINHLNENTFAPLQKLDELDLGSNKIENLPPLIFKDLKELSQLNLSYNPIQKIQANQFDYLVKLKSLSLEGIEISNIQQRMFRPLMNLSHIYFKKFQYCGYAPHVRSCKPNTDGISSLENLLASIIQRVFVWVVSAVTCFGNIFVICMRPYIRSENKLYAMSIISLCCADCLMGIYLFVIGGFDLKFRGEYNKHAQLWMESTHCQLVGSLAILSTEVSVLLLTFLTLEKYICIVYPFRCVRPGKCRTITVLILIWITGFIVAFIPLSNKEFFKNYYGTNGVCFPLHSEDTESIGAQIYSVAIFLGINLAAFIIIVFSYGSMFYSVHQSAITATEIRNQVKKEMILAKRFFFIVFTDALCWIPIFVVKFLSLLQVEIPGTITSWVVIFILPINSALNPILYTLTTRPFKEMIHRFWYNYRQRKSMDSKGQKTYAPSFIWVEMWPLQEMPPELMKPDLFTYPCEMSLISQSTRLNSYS
Procedure, shortened: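 cAMP accumulation readout: after 1 mM IBMX for 40 min, endogenous-RXFP1 OVCAR5 cells got rising peptide concentrations without FCS, 30 min, 37° C, then lysis with HTRF cAMP reagents. Nonlinear regression gave EC50; Emax expressed relative to H2-relaxin maximum, same occasion.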

[2] = Pharmacokinetic (PK) determination after i.v. or s.c. administration to rats; format: in vivo, Sprague Dawley rats; settings: Rat PK; for C0 / half-life / Cmax / Tmax / bioavailability: Sprague Dawley; for C0 / half-life: iv; for C0: extrapolated plasma concentration at t=0, read-out: C0; for half-life / Cmax / Tmax / bioavailability: plasma; for half-life: read-out: T½ (converted); for Cmax / Tmax: sc, 3 mg/kg s.c.; for bioavailability: subcutaneous, 3 mg/kg s.c. vs 1 mg/kg i.v., dose-corrected AUC ratio
Description: Prior to the testing of a peptide batch, its purity (HPLC-UV) was determined. Dose was corrected for presence of salts, solvent and purity.
Sprague Dawley rats were dosed with study peptide at a dose of 1 mg/kg intravenously (i.v.) or 3 mg/kg subcutaneously (s.c.) as a solution in PBS (0.2 mg/ml and 0.6 mg/ml respectively).
Plasma samples were analyzed after protein precipitation via liquid chromatography mass spectrometry (LC/MS).
PK parameters and half-life were calculated using Phoenix 64 (WinNonlin 6.4)-Pharsight (Certara™) (non-compartment model). Values below the limit of quantification (BLQ) were replaced by zero for subsequent calculations and PK analysis.
T½: in-vivo half life, time required for test compound plasma concentration to be divided by two during the PK experiment.
C0: Extrapolated test compound plasma concentration at t=0 time point (i.v. route).
Cmax: maximal test compound plasma concentration at the indicated time point (s.c. route).
Tmax: Time point where Cmax is attained.
F %: s.c. vs i.v. bioavailability, dose-corrected area under curve (AUC) s.c. route divided by AUC i.v.

Row | Emax [1] [%] | C0 ([2]; 1 mg/kg i.v.) [nM] | half-life ([2]; 1 mg/kg i.v.) [h] | Cmax [2] [nM] | Tmax [2] [h] | bioavailability [2] [%] | EC50 [1] [nM] | T½ ([2]; 1 mg/kg i.v.) [h] | SMILES
1 | 100 | 4700 | 7.3 | 2800 | 7 | 71 |  |  | CCCCCCCCCCCCCCC(=O)N[C@@H](CCC(=O)N[C@@H](CCC(=O)NCCCC[C@H](NC(=O)CC[C@H](NC(=O)CC[C@H](NC(=O)CCC(=O)NCCCOCCOCCOCCCNC(=O)CCC(=O)NCCCOCCOCCOCCCNC(=O)CCC(=O)NCCCOCCOCCOCCCNC(=O)[C@H](CCCCNC(C)=O)NC(=O)[C@H](C)NC(=O)[C@H](CCCNC(=N)N)NC(=O)[C@](C)(CCCCN)NC(=O)[C@H](CO)NC(=O)[C@H](Cc1ccccc1)NC(=O)[C@@H](NC(=O)[C@H](CO)NC(=O)[C@H](CCC(N)=O)NC(=O)CNC(=O)[C@H](CCC(=O)O)NC(=O)C(C)(C)NC(=O)C(C)(C)NC(=O)[C@@H](NC(=O)[C@H](CCCCNC(C)=O)NC(=O)[C@H](C)NC(=O)[C@H](CCCNC(=N)N)NC(=O)[C@@H](NC(=O)[C@H](CCCCN)NC(=O)[C@H](CCC(=O)O)NC(=O)[C@H](CCCNC(=N)N)NC(=O)CNC(=O)[C@H](CCC(=O)O)NC(=O)[C@H](CC(C)C)NC(C)=O)C(C)C)[C@@H](C)CC)[C@@H](C)O)C(=O)O)C(=O)O)C(N)=O)C(=O)O)C(=O)O [compound 184] (Ac-LEGREKVRAK(Ac)I[Aib][Aib]EGQSTFS[αMeK]RAK(Ac)-X6)
2 | 92 | 3000 | 2.9 | 1870 | 8 | 86 | 0.03 |  | CCCCCCCCCCCCCCCC(=O)N[C@@H](CCC(=O)NCCCC[C@H](NC(=O)CC[C@H](NC(=O)CC[C@H](NC(=O)CC[C@H](NC(=O)COCCOCCNC(=O)COCCOCCNC(=O)COCCOCCNC(=O)COCCOCCNC(=O)[C@H](CCCCNC(C)=O)NC(=O)[C@H](CCCCN)NC(=O)[C@H](CCCNC(=N)N)NC(=O)[C@](C)(CCCCN)NC(=O)[C@H](CO)NC(=O)[C@H](Cc1c[nH]c2ccccc12)NC(=O)[C@@H](NC(=O)[C@H](CO)NC(=O)[C@H](CCCC)NC(=O)CNC(=O)[C@H](CCC(=O)O)NC(=O)C(C)(C)NC(=O)C(C)(C)NC(=O)[C@@H](NC(=O)[C@H](CCCCNC(C)=O)NC(=O)[C@H](C)NC(=O)[C@H](CCCNC(=N)N)NC(=O)[C@@H](NC(=O)[C@H](CCCCN)NC(=O)[C@H](CCC(=O)O)NC(=O)[C@H](CCCNC(=N)N)NC(=O)CNC(=O)[C@H](CCC(=O)O)NC(=O)[C@H](CC(C)C)NC(C)=O)C(C)C)[C@@H](C)CC)[C@@H](C)O)C(=O)O)C(=O)O)C(=O)O)C(N)=O)C(=O)O [compound 136] (Ac-LEGREKVRAK(Ac)I[Aib][Aib]EG[Nle]STWS[αMeK]RKK(Ac)[AEEA][AEEA][AEEA][AEEA][γGlu][γGlu][γGlu]K([γGlu-Palmitoyl])-NH2)

Further lines, the molecule ahead of its results:

Row | SMILES | Emax [1] [%] | C0 ([2]; 1 mg/kg i.v.) [nM] | half-life ([2]; 1 mg/kg i.v.) [h] | Cmax [2] [nM] | Tmax [2] [h] | bioavailability [2] [%] | EC50 [1] [nM] | T½ ([2]; 1 mg/kg i.v.) [h]
3 | CCCCCCCCCCCCCCCCCC(=O)N[C@@H](CCC(=O)N[C@@H](CCC(=O)N[C@@H](CCC(=O)N[C@@H](CCC(=O)NCCCC[C@H](NC(=O)CCOCCOCCOCCOCCOCCOCCOCCOCCOCCOCCOCCOCCNC(=O)[C@H](CCCCNC(C)=O)NC(=O)[C@H](CCCCN)NC(=O)[C@H](CCCNC(=N)N)NC(=O)[C@](C)(CCCCN)NC(=O)[C@](C)(CO)NC(=O)[C@H](Cc1c[nH]c2ccccc12)NC(=O)[C@@H](NC(=O)[C@H](CO)NC(=O)[C@H](CCCC)NC(=O)CNC(=O)[C@H](CCC(=O)O)NC(=O)C(C)(C)NC(=O)C(C)(C)NC(=O)[C@@H](NC(=O)[C@H](CCCCNC(C)=O)NC(=O)[C@H](C)NC(=O)[C@H](CCCNC(=N)N)NC(=O)[C@@H](NC(=O)[C@H](CCCCN)NC(=O)[C@H](CCC(=O)O)NC(=O)[C@H](CCCNC(=N)N)NC(=O)CNC(=O)[C@H](CCC(=O)O)NC(=O)[C@H](CC(C)C)NC(C)=O)C(C)C)[C@@H](C)CC)[C@@H](C)O)C(N)=O)C(=O)O)C(=O)O)C(=O)O)C(=O)O [compound 40] (Ac-LEGREKVRAK(Ac)I[Aib][Aib]EG[Nle]STW[αMeS][αMeK]RKK(Ac)[PEG12]K([γGlu-γGlu-γGlu-γGlu-Stearoyl])-NH2) | 90 | 7080 | 3.6 | 1540 | 6 | 66 | 0.02 | 
4 | CCCCCCCCCCCCCCCCCC(=O)N[C@@H](CCC(=O)N[C@@H](CCC(=O)N[C@@H](CCC(=O)N[C@@H](CCC(=O)NCCCC[C@H](NC(=O)COCCOCCNC(=O)COCCOCCNC(=O)COCCOCCNC(=O)[C@H](CCCCNC(C)=O)NC(=O)[C@H](CCCCN)NC(=O)[C@H](CCCNC(=N)N)NC(=O)[C@](C)(CCCCN)NC(=O)[C@H](CO)NC(=O)[C@H](Cc1c[nH]c2ccccc12)NC(=O)[C@@H](NC(=O)[C@H](CO)NC(=O)[C@H](CCCC)NC(=O)CNC(=O)[C@H](CCC(=O)O)NC(=O)C(C)(C)NC(=O)C(C)(C)NC(=O)[C@@H](NC(=O)[C@H](CCCCNC(C)=O)NC(=O)[C@H](C)NC(=O)[C@H](CCCNC(=N)N)NC(=O)[C@@H](NC(=O)[C@H](CCCCN)NC(=O)[C@H](CCC(=O)O)NC(=O)[C@H](CCCNC(=N)N)NC(=O)CNC(=O)[C@H](CCC(=O)O)NC(=O)[C@H](CC(C)C)NC(C)=O)C(C)C)[C@@H](C)CC)[C@@H](C)O)C(N)=O)C(=O)O)C(=O)O)C(=O)O)C(=O)O [compound 16] (Ac-LEGREKVRAK(Ac)I[Aib][Aib]EG[Nle]STWS[αMeK]RKK(Ac)[AEEA][AEEA][AEEA]K([γGlu-γGlu-γGlu-γGlu-Stearoyl])-NH2) | 87 | 2650 | 3.38 | 1880 | 8 | 53 | 0.02 | 
5 | CCCCCCCCCCCCCCCC(=O)N[C@@H](CCC(=O)N[C@@H](CCC(=O)N[C@@H](CCC(=O)NCCCC[C@H](NC(=O)CCOCCOCCOCCOCCOCCOCCOCCOCCOCCOCCOCCOCCNC(=O)[C@H](CCCCNC(C)=O)NC(=O)[C@H](CCCCN)NC(=O)[C@H](CCCNC(=N)N)NC(=O)C(C)(C)NC(=O)[C@H](CO)NC(=O)[C@H](Cc1c[nH]c2ccccc12)NC(=O)[C@@H](NC(=O)[C@H](CO)NC(=O)[C@H](CCCC)NC(=O)CNC(=O)[C@H](CCC(=O)O)NC(=O)C(C)(C)NC(=O)C(C)(C)NC(=O)[C@@H](NC(=O)[C@H](CCCCNC(C)=O)NC(=O)C(C)(C)NC(=O)[C@H](CCCNC(=N)N)NC(=O)[C@@H](NC(=O)[C@H](CCCCN)NC(=O)[C@H](CCC(=O)O)NC(=O)[C@H](CCCNC(=N)N)NC(=O)CNC(=O)[C@H](CCC(=O)O)NC(=O)[C@H](CC(C)C)NC(C)=O)C(C)C)[C@@H](C)CC)[C@@H](C)O)C(N)=O)C(=O)O)C(=O)O)C(=O)O [compound 27] (Ac-LEGREKVR[Aib]K(Ac)I[Aib][Aib]EG[Nle]STWS[Aib]RKK(Ac)[PEG12]K([γGlu-γGlu-γGlu-Palmitoyl])-NH2) | 86 | 3200 |  | 1500 | 8 | 62 | 0.3 | 6.90
